# How the values were obtained:
# [1] = Pharmacokinetic screening, iv; assay type: in vivo; settings: CD-1 mice, 3 mg/kg iv
# Human PPARδ LBD = Human PPARδ LBD (Homo sapiens (Human), UniProt Q03181); assay: PPAR delta transactivation (PPARδ Activity Screen, GAL4-PPARδ LBD luciferase reporter in CV-1 cells); assay type: cell-based
# Experimental: Cell Culture and Transfection:
# CV-1 cells were grown in DMEM+10% charcoal stripped FCS. Cells were seeded into 384-well plates the day before transfection to give a confluency of 50-80% at transfection. A total of […] containing 0.64 micrograms pCMX-PPARDelta LBD, 0.1 micrograms pCMXβGal, 0.08 micrograms pGLMH2004 reporter and 0.02 micrograms pCMX empty vector was transfected per well using FuGene transfection reagent according to the manufacturer's instructions (Roche). Cells were allowed to express protein for 48 h followed by addition of compound.
# Human PPARδ was used to PCR amplify the PPARδ LBD. […] Ensuing fusions were verified by sequencing.
# Compounds: All compounds were dissolved in DMSO and diluted 1:1000 upon addition to the cells. Compounds were tested in quadruple in concentrations ranging from 0.001 to 100 μM. Cells were treated with compound for 24 h followed by luciferase assay. Each compound was tested in at least two separate experiments.
# Statistical Methods: The activity of a compound is calculated as fold induction compared to an untreated sample. For each compound the efficacy (maximal activity) is given as a relative activity compared to GW501516, a PPARδ agonist. […] EC50 values were calculated via non-linear regression using GraphPad PRISM (GraphPad Software, San Diego, Calif.).
# FGF1a promoter = assay: Luciferase reporter assay of FGF1a promoter co-transfected with PPARδ; assay type: cell-based; settings: PPARδ with or without ligand
# [2] = system: C57BL6J mice, thermal injury to the TA; assay: Muscle regeneration after freeze burn (thermal) injury to the TA, oral GW501516; assay type: in vivo
# Human PPARδ LBD, sequence (Q03181 128-441 limits assumed): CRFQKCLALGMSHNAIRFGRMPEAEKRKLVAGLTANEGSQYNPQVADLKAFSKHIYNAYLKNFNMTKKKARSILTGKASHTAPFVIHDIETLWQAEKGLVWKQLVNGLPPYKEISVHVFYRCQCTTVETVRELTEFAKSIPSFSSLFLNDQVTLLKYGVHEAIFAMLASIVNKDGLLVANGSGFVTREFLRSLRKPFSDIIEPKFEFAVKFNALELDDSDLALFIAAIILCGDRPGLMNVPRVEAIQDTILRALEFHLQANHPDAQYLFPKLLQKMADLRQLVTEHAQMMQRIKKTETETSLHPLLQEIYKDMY
SMILES,Mice_PK_IV_AUC (0-inf) [1],Mice_PK_IV_Cl [1],further results
"C/C(=C\COc1ccccc1CN(C)C(=O)c1ccc(-c2ccco2)c(F)c1)CCC(=O)O [Compound 8c, (E)-6-(2-((3-fluoro-4-(furan-2-yl)-N-methylbenzamido)methyl)phenoxy)-4-methylhex-4-enoic acid]",1459.00 ng·h/mL,34.30 mL/min/kg,
"CC(CCCCOc1ccccc1CN(C)C(=O)c1ccc(-c2ccco2)cc1)C(=O)O (centres unmarked) [Compound 8o, 6-(2-((4-(furan-2-yl)-N-methylbenzamido)methyl)phenoxy)-2-methylhexanoic acid]",11397.00 ng·h/mL,2.78 mL/min/kg,
"CN(Cc1ccccc1OCCCCC(C)(C)C(=O)O)C(=O)c1ccc(-c2ccco2)cc1 [Compound 8s, 6-(2-((4-(furan-2-yl)-N-methylbenzamido)methyl)phenoxy)-2,2-dimethylhexanoic acid]",48454.90 ng·h/mL,1.03 mL/min/kg,
"C/C(=C\COc1ccc(C(F)(F)F)cc1CN(C)C(=O)c1ccc(-c2ccco2)cc1)CCC(=O)O [Compound 8aa, (E)-6-(2-((4-(furan-2-yl)-N-methylbenzamido)methyl)-4-(trifluoromethyl)phenoxy)-4-methylhex-4-enoic acid]",,,"EC50 (Human PPARδ LBD; CV-1 cells, 24 h): 0.683 µM"
"C/C(=C\COc1ccccc1CN(C)C(=O)c1ccc2oc(C)cc2c1)CCC(=O)O [Compound 8f, (E)-6-(2-((N,2-dimethylbenzofuran-5-carboxamido)methyl)phenoxy)-4-methylhex-4-enoic acid]",,40.02 mL/min/kg,
"C/C(=C\COc1ccc(C2CC2)cc1CN(C)C(=O)c1ccc(-c2ccco2)cc1)CCC(=O)O [Compound 8bb, (E)-6-(4-cyclopropyl-2-((4-(furan-2-yl)-N-methylbenzamido)methyl)phenoxy)-4-methylhex-4-enoic acid]",,,"inhibition at 10 µM (Human PPARδ LBD; CV-1, @ 10 uM): 58%"
"Cc1cc2cc(C(=O)N(C)Cc3ccccc3OCCCCCC(=O)O)ccc2o1 [Comparator Cmpd. 3, reference compound]",[AUC (0-inf) = 1788.0 ng * hr/ml],Mice_PK_IV_Cl = 27.95 ml/min/kg,
"C/C(=C\COc1ccc(F)cc1CN(C)C(=O)c1ccc(-c2ccco2)cc1)CCC(=O)O [Compound 8g, (E)-6-(4-fluoro-2-((4-(furan-2-yl)-N-methylbenzamido)methyl)phenoxy)-4-methylhex-4-enoic acid]",2195.00 ng·h/mL,23.00 mL/min/kg,
"C/C(=C\CCCOc1ccccc1CN(C)C(=O)c1ccc(-c2ccco2)cc1)C(=O)O [Compound 8k, (E)-6-(2-((4-(furan-2-yl)-N-methylbenzamido)methyl)phenoxy)-2-methylhex-2-enoic acid]",12804.00 ng·h/mL,3.92 mL/min/kg,
"CN(Cc1ccccc1OCCC[C@H]1CC1C(=O)O)C(=O)c1ccc(-c2ccco2)cc1 (single isomer, unassigned) [Compound 8u, (1R*,2S*)-2-(3-(2-((4-(furan-2-yl)-N-methylbenzamido)methyl)phenoxy)propyl) cyclopropane-1-carboxylic acid]",30142.00 ng·h/mL,1.70 mL/min/kg,
"C/C(=C\COc1ccccc1CN(C)C(=O)c1ccc(-c2ccco2)c(Cl)c1)CCC(=O)O [Compound 8d, (E)-6-(2-((3-chloro-4-(furan-2-yl)-N-methylbenzamido)methyl)phenoxy)-4-methylhex-4-enoic acid]",1443.00 ng·h/mL,34.65 mL/min/kg,
"C/C(=C\C(=O)O)CCCOc1ccccc1CN(C)C(=O)c1ccc(-c2ccco2)cc1 [Compound 8i, (E)-6-(2-((4-(furan-2-yl)-N-methylbenzamido)methyl)phenoxy)-3-methylhex-2-enoic acid]",4691.00 ng·h/mL,10.65 mL/min/kg,
"C/C(=C\COc1ccc(C)cc1CN(C)C(=O)c1ccc(-c2ccco2)cc1)CCC(=O)O [Compound 8n, (E)-6-(2-((4-(furan-2-yl)-N-methylbenzamido)methyl)-4-methylphenoxy)-4-methylhex-4-enoic acid]",,5.10 mL/min/kg,
"CN(Cc1ccccc1OCc1cccc(CC(=O)O)c1)C(=O)c1ccc(-c2ccco2)cc1 [Compound 8q, 2-(3-((2-((4-(furan-2-yl)-N-methylbenzamido)methyl)phenoxy)methyl)phenyl)acetic acid]",622.50 ng·h/mL,80.32 mL/min/kg,
Cc1cc(SCc2sc(-c3ccc(C(F)(F)F)cc3)nc2C)ccc1OCC(=O)O [GW501516],,,"induction of FGF1a (luciferase reporter) (FGF1a promoter): induction of FGF1a; Evans Blue dye uptake, proportion of muscle CSA stained ([2]; 5 mg/kg orally, 4 days prior to and 5 days after injury, 5 days after the injury): 4.9%; expression of inflammatory marker genes by QPCR ([2]; 3 days after the injury): significantly reduced; reduction in the proportion of stained area ([2]; 5 days after the injury, versus vehicle): 34.7%; PPARδ target genes (PDK4, CPT1b, and catalase) in TA by QPCR ([2]; 9 day treatment): Up-regulation; myoblast proliferation (BrdU positive nuclei) ([2]; BrdU injection at 48 hours after the injury): promoted myoblast proliferation; number of quiescent satellite cells ([2]; after 9 days or 4 weeks of ligand treatment): an increase in the number of quiescent satellite cells was not observed"
"CN(Cc1ccccc1/C=C/CCCCC(=O)O)C(=O)c1ccc(-c2ccco2)cc1 [Compound 8l, (E)-7-(2-((4-(furan-2-yl)-N-methylbenzamido)methyl)phenyl)hept-6-enoic acid]",5161.00 ng·h/mL,9.68 mL/min/kg,
"CN(Cc1ccccc1OCCCC1CC1C(=O)O)C(=O)c1ccc(-c2ccco2)cc1 (centres unmarked) [Compound 8t, 2-(3-(2-((4-(furan-2-yl)-N-methylbenzamido)methyl)phenoxy)propyl) cyclopropane-1-carboxylic acid]",,3.08 mL/min/kg,

# Further lines, with some results ahead:
Mice_PK_IV_AUC (0-inf) [1],Mice_PK_IV_Cl [1],SMILES,further results
11843.00 ng·h/mL,4.20 mL/min/kg,"CC(CCOc1ccccc1CN(C)C(=O)c1ccc(-c2ccco2)cc1)CCC(=O)O (centres unmarked) [Compound 8h, 6-(2-((4-(furan-2-yl)-N-methylbenzamido)methyl)phenoxy)-4-methylhexanoic acid]",
288.90 ng·h/mL,173.05 mL/min/kg,"CN(Cc1ccccc1OCc1cccc(CCC(=O)O)c1)C(=O)c1ccc(-c2ccco2)cc1 [Compound 8p, 3-(3-((2-((4-(furan-2-yl)-N-methylbenzamido)methyl)phenoxy)methyl)phenyl)propanoic acid]",
748.00 ng·h/mL,66.87 mL/min/kg,"CN(Cc1ccccc1OCCC/C=C/C(=O)O)C(=O)c1ccc(-c2ccco2)cc1 [Compound 8cc, (E)-6-(2-((4-(furan-2-yl)-N-methylbenzamido)methyl)phenoxy)hex-2-enoic acid]",
,1.70 mL/min/kg,"CN(Cc1ccccc1OCCC[C@H]1C[C@H]1C(=O)O)C(=O)c1ccc(-c2ccco2)cc1 (single isomer, unassigned) [Compound 8w]",
,1.90 mL/min/kg,"CN(Cc1ccccc1OCCC[C@@H]1C[C@@H]1C(=O)O)C(=O)c1ccc(-c2ccco2)cc1 (single isomer, unassigned) [Compound 8x]",
2166.00 ng·h/mL,23.10 mL/min/kg,"C/C(=C\COc1ccccc1CN(C)C(=O)c1ccc(-c2ccc(C)o2)cc1)CCC(=O)O [Compound 8e, (E)-4-methyl-6-(2-((N-methyl-4-(5-methylfuran-2-yl)benzamido)methyl)phenoxy)hex-4-enoic acid]",
